Measurements reported in patent US20090209537A1, “AURORA INHIBITORS” (Kyowa Hakko Kirin Co., Ltd., priority 2006, published 2009).

Key:
[1] = biological target: T1, Aurora A protein (Homo sapiens, UniProt O14965); test: Aurora A inhibitory activity (IMAP); format: biochemical; details: at a concentration of 1 μmol/L; 10 μmol/L ATP
T1 construct: purchased Carna Biosciences
T1 sequence (O14965 1-403): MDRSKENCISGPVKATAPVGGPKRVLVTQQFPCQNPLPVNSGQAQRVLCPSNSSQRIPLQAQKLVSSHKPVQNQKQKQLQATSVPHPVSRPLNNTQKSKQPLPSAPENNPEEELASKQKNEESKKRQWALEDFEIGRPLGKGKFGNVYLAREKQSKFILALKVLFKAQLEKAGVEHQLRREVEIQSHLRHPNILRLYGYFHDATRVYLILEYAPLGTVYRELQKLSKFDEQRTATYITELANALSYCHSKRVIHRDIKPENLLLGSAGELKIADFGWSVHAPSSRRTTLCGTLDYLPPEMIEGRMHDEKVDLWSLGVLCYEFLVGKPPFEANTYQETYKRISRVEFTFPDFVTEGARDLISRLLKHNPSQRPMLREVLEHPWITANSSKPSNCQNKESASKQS
Procedure: The following procedure was employed to measure the Aurora A inhibitory activity.
(§1) A 20 μL sample containing Aurora A protein (Carna Biosciences) at a final concentration of 0.35 mg/mL, 20 mmol/L HEPES (pH 7.4), 0.01% Tween-20, 2 mmol/L DTT, 100 nmol/L PKAtide, 1 mmol/L magnesium acetate, 10 μmol/L adenosine-5′-triphosphate (ATP), 1% dimethylsulfoxide (DMSO), and 1 μmol/L test compound was prepared and enzyme reaction was conducted at room temperature for 60 minutes. Phosphorylation reaction was detected by using IMAP Screening Express kit (Molecular Devices Corp., R8073).
(§2) While assuming the observed value of a control to which ATP was added to be 100% and the observed value of a control to which no ATP was added to be 0%, the relative activity (%) of the radio activity of a sample containing a test compound was calculated, and the difference between 100 and the obtained percentage value was assumed to be the Aurora A inhibitory rate (%) of that test compound.

[2] = biological target: T2, Aurora B protein (Homo sapiens, UniProt Q96GD4); test: Aurora B inhibitory activity (IMAP); format: biochemical; details: at a concentration of 1 μmol/L; 10 μmol/L ATP
T2 construct: purchased Carna Biosciences
Procedure: The following procedure was employed to measure the Aurora B inhibitory activity.
as §1, with “Aurora B” for “Aurora A”, “of 0.3” for “of 0.35”, “nmol/L Histone H3,” for “nmol/L PKAtide,”, “μmol/L ATP,” for “μmol/L adenosine-5′-triphosphate (ATP),”, “1% DMSO,” for “1% dimethylsulfoxide (DMSO),”
as §2, with “Aurora B” for “Aurora A”

[3] = test system: human pancreatic cancer cell line (MIA-PaCa-2); test: Cytostatic activity against human pancreatic cancer cell line (WST-1); format: cell-based; details: at a concentration of 10 μmol/L, 72 hours, read-out: growth inhibitory activity
Procedure: The cytostatic rate of Compound (I) against a human pancreatic cancer cell line (MIA-PaCa-2) was measured according to the following procedure.
MIA-PaCa-2 cells were cultured in a minimum essential medium (MEM) (GIBCO) containing a 10% fetal calf serum (FCS).
Each well of a TC Microwell 96F plate (Nalge Nunc) was inoculated with 50 μL of MIA-PaCa-2 cells at a density of 1000 cells/well, and the cells were incubated at 37° C. for 24 hours in a 5% carbon dioxide gas incubator. To each well, 50 μL of a solution containing a test compound prepared by stepwise dilution with the incubation medium of the respective cells was added and the resulting mixture was again incubated at 37° C. for 72 hours in a 5% carbon dioxide gas incubator. To each well, 10 μL of a WST-1 reagent (4-[3-(4-iodophenyl)-2-(4-nitrophenyl)-2H-5-tetrazolio]-1,3-benzene disulfonate sodium salt) (Roche Diagnostics K. K.) was added, followed by incubation at 37° C. for 2 hours and analysis with a microplate spectrometer, SpectraMax 340PC (Molecular Devices) to determine the absorbance at 450 nm (reference wavelength: 690 nm). The cytostatic rate was determined from the equation below by assuming the absorbance of the well containing cells similarly cultured by adding a solvent of the test compound solution to be 100%. Furthermore, the observed absorbance of a blank to which WST-1 was added immediately after addition of the solvent was used.

T2 sequence (Q96GD4 whole entry): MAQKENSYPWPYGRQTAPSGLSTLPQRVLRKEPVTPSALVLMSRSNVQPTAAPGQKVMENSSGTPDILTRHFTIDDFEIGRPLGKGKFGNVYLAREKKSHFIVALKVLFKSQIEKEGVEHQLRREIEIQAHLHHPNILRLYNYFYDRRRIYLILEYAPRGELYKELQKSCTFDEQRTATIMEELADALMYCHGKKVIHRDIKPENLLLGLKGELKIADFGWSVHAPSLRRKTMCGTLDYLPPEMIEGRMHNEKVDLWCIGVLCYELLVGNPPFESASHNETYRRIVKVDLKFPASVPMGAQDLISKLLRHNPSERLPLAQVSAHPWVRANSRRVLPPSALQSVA
T2 sequence (Q9NQS7 803-918 partner limits assumed): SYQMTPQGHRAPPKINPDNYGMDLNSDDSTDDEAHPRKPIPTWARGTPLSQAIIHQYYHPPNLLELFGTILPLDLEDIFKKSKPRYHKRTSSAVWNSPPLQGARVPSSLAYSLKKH

inhibition at 1 µM [1] [%]	inhibition at 1 µM [2] [%]	SMILES	inhibition at 10 µM [3] [%]
≥ 90	≥ 90	Nc1cc(/C=C/c2n[nH]c3ccccc23)ccc1OCCN1CCOCC1 [Compound 4]	≥ 50
≥ 90	≥ 90	CC(=O)N1CCN(C(=O)c2ccc(/C=C/c3n[nH]c4ccccc34)cc2)CC1 [Compound 6]	≥ 50
≥ 90	≥ 90	COCC(=O)N1CCN(C(=O)c2ccc(/C=C/c3n[nH]c4ccccc34)cc2)CC1 [Compound 7]	≥ 50
